According to patent US20100150948A1, “MATERIALS AND METHODS FOR IMPROVED IMMUNOGLYCOPROTEINS” (TRUBION PHARMACEUTICALS, INC., priority 2006, published 2010):

What was measured:
[1] = system: CHO cells expressing TRU-016; assay: Culturing CHO host cells with carbohydrate modifier: cell growth and viability; assay type: cell-based, Chinese hamster; details: castanospermine up to 1000 μM, all time periods up to 144 hours
Protocol: For shake flask runs, log phase host cells were seeded in shake flasks at 100,000 cells/ml with carbohydrate modifier at the concentration to be tested, and optionally with methotrexate (MTX) @ 50 nM
Cells were seeded at 3×10E6/mL in 1350 mL of Ex-Cell 302 culture media (SATC Biosciences; with added non-essential amino acids, pyrucate, L-glutamine, pen/strep, HT Supplement and insulin, all from Invitrogen) at t=0 and brought to 5 L total volume at T>=72 hours. The cells were incubated at 37° C. and 5% carbon dioxide and monitored for growth and viability daily starting at day 6-7. Supernatants were typically harvested at day 10-12 when cell viability dropped below 60%.
Na-Azide was added to 0.02%, cells were removed by centrifugation and supernatant was filter sterilized through a 0.22 uM filter. Some assays described in other examples herein were performed on the supernatants as indicated, while other assays were performed on material that underwent further protein A purification. […] Cells were incubated at 37° C. and 5% carbon dioxide and monitored daily for growth and viability. […]

CD16 = assay: Binding to soluble FcγR-MIg fusion on WIL2-S cells, flow cytometry (allele not stated)
Protocol: The immunoglycoproteins produced according to Example 2 were assayed in vitro for binding to soluble Ig-fusion versions of Fcγ receptors, in which the extracellular domain of a receptor is fused to murine IgG2a Fc.
The soluble Fey receptor materials were generated by fusing the extracellular domain of Fcγ Receptors I (Genbank Acc. No. BC032634), IIa (Genbank Acc. No. NM_021642), IIb (Genbank Acc. No. BC031992), and III-V158 (high affinity allele) (Genbank Acc. No. X07934) and III-F158 (low affinity allele), respectively, to a murine IgG2a Fc with a Pro to Ser mutation at residue 238 (MIgG2aP238S). For both forms of Fcγ RIII (CD16), an HE4 leader was cloned onto CD16 amino acids 1-178 and then fused to MIgG2aP238S.
The assays were carried out as follows. […] The cells were then incubated with the desired FcγR-MIg fusion in the same diluent at a concentration of 1 μg/ml on ice for 45 minutes.
The complexes (WIL2-S cells/SMIP/FcγR-MIg) were then incubated with PE conjugated AffiniPure F(Ab')2 Goat Anti-Mouse IgG [Jackson Immunoresearch] (a mouse Fc-specific antibody with minimal cross reactivity with human Fc) at a 1:100 dilution. The cells were analyzed by one-color flow cytometry on a FACsCalibur using CellQuest software (Becton Dickinson).
If TRU-016 supernatants from Example 2 were used in this assay instead of purified TRU-016 protein, the SMIP concentration in the supernatant was quantified by direct staining of WIL2-S cells with diluted supernatant along with a TRU-016 standard. TRU-016 was detected by staining with FITC conjugated F(Ab')2 Goat Anti-Human (gamma) [Caltag H10101] at a 1:50 dilution.

Ramos cells = assay: Ramos tumor model in nude mice; assay type: in vivo; details: TRU-016 from CHO cells treated with 200 μM DMJ, 10 μM kifenunsine or 200 μM castanospermine; 200 μg i.v.
Protocol: Nude mice are administered 5×10^6 Ramos cells subcutaneously on day 0 and injected intravenously with 200 μg control human IgG or TRU-016 test protein produced by CHO cells treated with 200 μM DMJ, 10 μM kifenunsine or 200 μM castanospermine on days 0, 2, 4, 6, and 8. Mice typically develop tumors within 6 days and die shortly thereafter. Tumors are measured three times weekly with digital calipers and LabCat software, and tumor volume is calculated as […]. Body weight is also determined once a week.
Mice are sacrificed when the tumor reaches 1500 mm^3 in size (1200 mm^3 on Fridays). Mice are also sacrificed if ulceration of a tumor occurs, the tumor inhibits the mobility of animal, or if weight loss equals or exceeds 20%.

[2] = parameters: species or system BALB/c mice; details: mouse, in vivo, iv, 200 ug
Protocol: Female BALB/c mice were injected i.v. with 200 μg of TRU-016 test protein (TRU-016 produced by untreated CHO cells or by CHO cells treated with 200 μM DMJ, […] or 200 μM castanospermine) at time 0. Serum samples were collected (3 mice per time point) at 15 min, 2, 6, 24, 48, 72, 96, and 192 hours post injection. The serum concentration of each TRU-016 test sample was determined in a FACS-based binding assay using the CD37+ Ramos human cell line. CD37+ Ramos cells (5×10^5 cells/well) were incubated in 96 well flat bottom plates along with the serum sample to be tested. Spiked serum samples were used for the standard curves. Cells were incubated at 4° C. for an hour and washed before addition of the detection antibody. Binding of TRU-016 test protein to CD37+ Ramos cells was detected using a fluorescein-conjugated goat anti-human IgG Fcγ fragment-specific antibody. Standard curves were used to construct a binding curve as a function of antigen concentration. Briefly, standard curves consisted of various known concentrations of the TRU-016 test protein spiked into normal mouse serum diluted 1:20 in FACS buffer. The standard curves were run in duplicate on each plate. Mean fluorescence intensities (MFI) from the FACS analysis were imported into Softmax Pro software and were used to calculate serum concentrations of the TRU-016 test protein.

## O[C@H]1[C@H](O)[C@@H](O)CN2CC[C@H](O)[C@H]12 [castanospermine]
[1]
  cell counts: did not affect
  percent cell viability: did not affect
CD16; 0, 10, 25, 50, 100 or 200 μM castanospermine in culture media
  CD16 binding (mean fluorescence intensity) of Protein A-purified TRU-016: dose-dependent increase

## TRU-016: recombinant single chain protein (SMIP) that binds CD37; G28-1 binding domain, modified hinge, human IgG1 CH2 and CH3; SEQ ID NO: 2
CD16; mouse sera at 48, 72, 96 and 192 hours after administration of carbohydrate-modified TRU-016
  CD16 binding activity of sera containing TRU-016: retained its increased CD16 binding activity
Ramos cells
  mean survival time: increase mean survival time
  tumor volume: reduce tumor volume
[2]
  effect of carbohydrate modifier on half-life or other pharmacokinetic parameters: no significant effect
